No end group written: not given here.
How the values were obtained:
[1] = tested on: hepatitis B virus (HBV) ayw strain; assay: HBV experimental assay system (HepG2-2.2.15, TaqMan PCR of HBV DNA); format: cell-based; conditions: 10 micrograms per ml; six days; as compared to the virus control infection
TNF-a spleen cells = assay: Th1/Th2 cytokine profiling assay: TNF-a; format: cell-based, Balb/c mice; conditions: 10 micrograms per ml; Ovalbumin restimulation; 72 hours
Text: (§1) The Balb/c mice (originated in 1923, it is a popular strain and is used in many different research disciplines. Also classified as an inbred from the production of 20 or more successive brother-sister matings, the Balb/c mouse is albino and small in size) were immunized on Days 1, 15, and 29 with Ovalbumin (Ovalbumin is the main protein found in egg white, commonly used to stimulate an immunological reaction in test animals) in PBS (5 micrograms/injection). On day 50, spleens of the mice were harvested (3 weeks after last boost with Ovalbumin). […] Thereafter, additional Ovalbumin was added to the cells at 10 micrograms/ml for in vitro restimulation of the cells. 72 hours later, cell supernatants were harvested and assayed using the Becton Dickinson Mouse Th1/Th2 Cytokine CBA Kit. This kit can be used to measure Interleukin-2 (IL-2), Interleukin-4 (IL-4), Interleukin-5 (IL-5), Interferon-γ (IFN-γ), and Tumor Necrosis Factor-α (TNF-α) protein levels in a single sample.

IFNγ spleen cells = assay: Th1/Th2 cytokine profiling assay: IFNγ; format: cell-based, Balb/c mice; conditions: 10 micrograms per ml; Ovalbumin restimulation; 72 hours
Text: as §1

IL-2 spleen cells = assay: Th1/Th2 cytokine profiling assay: IL-2; format: cell-based, Balb/c mice; conditions: 10 micrograms per ml; Ovalbumin restimulation; 72 hours
Text: as §1

IL-4 spleen cells = assay: Th1/Th2 cytokine profiling assay: IL-4; format: cell-based, Balb/c mice; conditions: 10 micrograms per ml; Ovalbumin restimulation; 72 hours
Text: as §1

IL-5 spleen cells = assay: Th1/Th2 cytokine profiling assay: IL-5; format: cell-based, Balb/c mice; conditions: 10 micrograms per ml; Ovalbumin restimulation; 72 hours
Text: The Balb/c mice (originated in 1923, it is a popular strain and is used in many different research disciplines. Also classified as an inbred from the production of 20 or more successive brother-sister matings, the Balb/c mouse is albino and small in size) were immunized on Days 1, 15, and 29 with Ovalbumin (Ovalbumin is the main protein found in egg white, commonly used to stimulate an immunological reaction in test animals) in PBS (5 micrograms/injection). On day 50, spleens of the mice were harvested (3 weeks after last boost with Ovalbumin). […] Thereafter, additional Ovalbumin was added to the cells at 10 micrograms/ml for in vitro restimulation of the cells. 72 hours later, cell supernatants were harvested and assayed using the Becton Dickinson Mouse Th1/Th2 Cytokine CBA Kit.

[2] = tested on: Primary Human endothelial cells (HUVEC); assay: Endothelial cell migration assay; format: cell-based; conditions: 10 micrograms per ml, 22 hours
[3] = tested on: cyclic AMP generation in human peripheral blood mononuclear cells (PBMC); assay: cAMP induction assay; format: cell-based; conditions: single peptides, 10 min at 37° C.
Procedure: The cAMP kit was used as an immunoassay for the quantitative determination of cyclic AMP generation in human peripheral blood mononuclear cells (PBMC). PBMC were placed in 96-well microtitier plates (50 microliters of cells at 4×10^6/ml) and 50 microliters of medium alone (background control), forskolin (cAMP positive control; 50 micrograms per ml), or test peptides were added. Plates were mixed and incubated for 10 min at 37° C. and the cells were lysed by the addition of 50 microliters of 3% perchloric acid. NaOH was added to neutralize the samples. Plates were centrifuged for 15 min at 2500 rpm and the supernatants removed. The supernatants (diluted 2-fold in assay buffer) were then assayed for the levels of cAMP by ELISA.

## Tyr-Val-Met-Gly-His-Phe-Arg-Trp-Asp-Arg-Phe-NH2 (YVMGHFRWDRF-NH2) [peptide 1]
[1]
  inhibition of HBV replication: 17.4%
TNF-a spleen cells
  TNF-a spleen cells; TH1 response (% of control): 85.7 % of control
IFNγ spleen cells
  IFNγ spleen cells; TH1 response (% of control): 97.3 % of control
IL-2 spleen cells
  IL-2 spleen cells (% of control): 101.6 % of control
IL-4 spleen cells
  IL-4 spleen cells; TH2 response (% of control): 0.0 % of control
IL-5 spleen cells
  IL-5 spleen cells; TH2 response (% of control): 67.0 % of control
[2]
  induction of the migration of human endothelial cells: 12%
[3]
  induction of cAMP formation in human peripheral blood cells: 45.4%

From patent publication US20100204143A1, “GAMMA 1 MSH ALONE OR IN COMBINATION WITH PENTAGASTRIN AS A THERAPEUTIC AGENT” (priority 2007, published 2010)
